# From patent US5250562A, “Stilbene derivatives” (Hoffmann-La Roche Inc., priority 1988, dated 1993)
# System: chemically induced mammary tumours
# Assay: activity against chemically induced (oral administration of dimethylbenzanthracene) mammary tumours in rats
# Assay type: in vivo
# Details: for Increase or decrease in the average number of tumours per rat: control group +242; for Increase or decrease in the average tumour volume per rat in mm^3: control group +714
# From the text: The biological activity of the compounds in accordance with the invention can be determined e.g. using the test procedures described in German Offenlegungsschrift 3 715 955.
compound,measurement,setting,value
"C/C(=C\c1ccc(OCCN2CCOCC2)cc1)c1ccc2c(c1)C(C)(C)CCC2(C)C [4-[2-[p-[(E)-2-(5,6,7,8-tetrahydro-5,5,8,8-tetramethyl-2-naphthyl)propenyl]phenoxy]ethyl]morpholine]",Rats with tumours,50 mg/kg/day p.o.,100 % of controls
same,Increase or decrease in the average number of tumours per rat,50 mg/kg/day p.o.,+91
same,Increase or decrease in the average tumour volume per rat in mm^3,50 mg/kg/day p.o.,+550 mm^3
same,Rats with tumours,100 mg/kg/day p.o.,50 % of controls
same,Increase or decrease in the average number of tumours per rat,100 mg/kg/day p.o.,-73
same,Increase or decrease in the average tumour volume per rat in mm^3,100 mg/kg/day p.o.,-77 mm^3
same,Rats with tumours,200 mg/kg/day p.o.,10 % of controls
same,Increase or decrease in the average number of tumours per rat,200 mg/kg/day p.o.,-96
same,Increase or decrease in the average tumour volume per rat in mm^3,200 mg/kg/day p.o.,-99 mm^3
